The record followed here is PMC10136296, “Biological Screening and Crystallographic Studies of Hydroxy γ-Lactone Derivatives to Investigate PPARγ Phosphorylation Inhibition” (Biomolecules, 2023).

The target in data set [1] is T1, PPARγ-LBD (Homo sapiens, UniProt P37231).
T1 construct: PPARγ-LBD (NP_001120802; aa 207−474) was expressed as an N-terminal His-tagged protein; His-tag (N, cleaved yes); made in house; host or cells: E. coli BL21(DE3), pET-28a(+)
T1 sequence (P37231 207-474 isoform P37231-2 limits assumed): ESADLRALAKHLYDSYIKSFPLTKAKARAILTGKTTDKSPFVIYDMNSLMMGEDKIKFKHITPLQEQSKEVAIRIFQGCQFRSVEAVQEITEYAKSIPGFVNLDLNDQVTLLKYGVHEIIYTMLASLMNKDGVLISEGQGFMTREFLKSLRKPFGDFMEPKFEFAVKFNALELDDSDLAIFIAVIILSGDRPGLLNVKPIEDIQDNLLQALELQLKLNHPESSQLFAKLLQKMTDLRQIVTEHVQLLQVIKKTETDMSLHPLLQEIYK
Description: SPR full kinetic analysis on immobilized PPARγ-LBD. The class given is binding. Conditions: for Kd: SPR full kinetic analysis, KD = Koff/Kon; for koff / kon: SPR, 25 °C, 5 μM to 312 nM, 1:1 model. How it is done: SPR experiments were performed at 25 °C using a Pioneer AE optical biosensor (Sartorius, Varedo, Italy) equipped with a PCH sensor chip (linear polycarboxylate hydrogel layer) and equilibrated with running buffer 10 mM Hepes, pH 7.4, 150 mM NaCl, 0.005% Tween-20, 1% DMSO. The PCH sensor chip was installed and conditioned in accordance with the manufacturer’s instructions. PPARγ-LBD was immobilized on the surface using amine coupling chemistry. Briefly, flow cells were activated for 5 min by injecting 125 μL of 1:1 ratio of 100 mM N-hydroxysuccinimide (NHS)/400 mM N-ethyl-N’-(3-(dimethylamino)propyl)carbodiimide (EDC). The protein solution (150 μg mL^−1 in 10 mM Na Acetate, pH 4.5) was then injected at 10 μL min^−1, followed by a 70 μL injection of 1 M ethanolamine (pH 8.0) to block any remaining activated groups on the surface. Approximately 11,770 and 10,800 RUs of protein were immobilized on Channel 1 and Channel 3 of the sensor chip, respectively, whereas Channel 2 was used as a reference for non-specific binding. […] The analytes were dialyzed in the running buffer (1% final DMSO concentration) and primary screened using OneStep® injection technology, which allows the compounds to diffuse into a moving stream of buffer to generate a concentration gradient (from 0 up to 10 μM) during a single injection at a flow rate of 50 μL min^−1 [40]. For each analyte injection, a long dissociation (600 s) was allowed, and regeneration of the sensing surface was not used. Next, the full kinetic analysis of the selected compounds was performed at different serial concentrations (from 5 μM to 312 nM) for 120 s at a constant flow rate of 50 μL min^−1. For each analyte injection, a dissociation of 180 s was allowed, followed by a short mild regeneration step with 1 M NaCl. All sensorgrams were processed using double referencing. First, responses from the reference surface (Channel 2) were subtracted from the binding responses collected over the reaction surfaces to correct for bulk refractive index changes between the flow buffer and analyte sample. Second, the response from the closest blank injection (zero analyte concentration) was subtracted to compensate for drift and small differences between the activated channel and the reference flow cell Channel 2. As an internal control for the gradient dispersion process, an injection of 3% sucrose dissolved in the assay buffer was performed for all the injections to ensure proper gradient formation and to calibrate for buffer viscosity. To obtain kinetic rate constants and affinity constants, the corrected response data were fitted in QDAT software provided with the instrument (BioLogic Software, Canberra, Australia). A kinetic analysis of the ligand/analyte interaction was obtained by fitting the response data to a reversible 1:1 bimolecular interaction model. The equilibrium dissociation constant (KD) was determined by the ratio Koff/Kon. This experiment was performed in duplicate.
The OneStep® injection technology was used for the screening of our compound collection. This method has been successfully employed in our previous work to test a series of natural products, extracted from medicinal plants. Its efficiency and reliability as a screening technique were confirmed by the rapid identification of promising compounds. This approach is based on the well-established concept of Taylor dispersion injection, which allows the compound to diffuse into a moving stream of buffer, producing a gradient throughout the injections. In this way, a wide range of analyte concentrations can be readily tested. In this assay, all the ligands from the DMSO stock solutions were dialyzed into the running buffer at 10 μM (1% final DMSO concentration) and gradient-injected for 120 s over the sensor chip surface. […]

Data set [2] addresses T2, CDK5/p35 (Homo sapiens, UniProt Q00535).
T2 construct: purchased Sigma-Aldrich (Merck KGaA) SRP5011
Description: CDK5 inhibition test with histone H2A/H2B as substrate. The class given is biochemical. Conditions: 5 µM ligand, H2a/H2b as phosphorylation target. The protocol: The degree of CDK5 inhibition in the presence of compounds 1, 2, and 3 was evaluated with the same protocol described above for the in vitro kinase assay. In detail, the test was carried out for 30 min at 30 °C in 50 μL of the assay buffer containing 50 mM Tris-HCl, pH 7.5, 800 ng H2A/H2B, 5 μM ligand (for the calculation of the ligand concentration, the excess amount of compounds 1, 2, and 3 possibly not bound to PPARγ was overestimated), 1% DMSO, 2.5 mM MgCl2, 50 μM DTT, 500 μM ATP, 40 ng of CDK5/p35 (Sigma-Aldrich code no. SRP5011; Merck KGaA). The Pro-Q™ Diamond Phosphoprotein Gel Stain method and a Chemidoc Imaging System (Bio-Rad) were used for measuring the phosphorylation level. The experiment was performed in triplicate and the statistical significance was estimated as above.
Furthermore, these molecules were also screened as potential inhibitors of CDK5 itself, considering their structural similarity to BLI (Figure 2), which was reported in the literature as both a PPARγ partial agonist and a CDK5 inhibitor [10]. A kinase activity test was performed in the presence of compounds 1, 2, and 3, using histone H2a/H2b as a phosphorylation target.

The target of data set [3] is T3, human PPARγ subtype (hPPARγ), Gal4-PPARγ-LBD (Homo sapiens, UniProt P37231).
T3 construct: expressed in transfected cells; host or cells: HepG2
T3 sequence (P37231 238-503 limits assumed): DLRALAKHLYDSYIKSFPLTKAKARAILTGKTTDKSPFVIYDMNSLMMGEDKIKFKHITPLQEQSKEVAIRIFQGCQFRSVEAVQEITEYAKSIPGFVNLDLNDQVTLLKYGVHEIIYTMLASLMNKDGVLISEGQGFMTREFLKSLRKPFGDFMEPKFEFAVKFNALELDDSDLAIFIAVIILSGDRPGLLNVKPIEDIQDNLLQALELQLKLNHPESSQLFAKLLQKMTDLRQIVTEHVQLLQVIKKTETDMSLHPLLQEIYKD
In words: GAL4-PPAR transactivation assay, antagonist mode (competition with rosiglitazone). The class given is cell-based. Conditions: HepG2, antagonist mode vs rosiglitazone 1 µM; mean ± SEM; uncertain above 10 µM because of cytotoxicity. An excerpt:
(§1) Reference compounds, the cell culture medium, and the reagents were purchased from Sigma-Aldrich (Merck KGaA). The expression vectors bearing the chimeric receptor containing the yeast Gal4-DNA binding domain fused to the human PPARγ-LBD, and the reporter plasmid for this Gal4 chimeric receptor (pGal5TKpGL3), comprising five repeats of the Gal4 response elements upstream of a minimal thymidine kinase promoter adjacent to the coding sequence for luciferase, were described in a previous study. A culture of the human hepatoblastoma cell line HepG2 (Interlab Cell Line Collection, Genoa, Italy) was conducted in minimum essential medium (MEM) containing 10% heat-inactivated fetal bovine serum, 100 U of penicillin G mL^−1, and 100 μg mL^−1 of streptomycin sulfate at 37 °C in a humidified atmosphere of 5% CO2. For transactivation assays, cells were seeded in a 24-well plate at a concentration of 10^5 cells per well and were transfected after 24 h by CAPHOS, a calcium phosphate method, according to the manufacturer’s guidelines. Cell transfection was performed using expression plasmids encoding the fusion protein Gal4-PPARγ-LBD (30 ng), pGal5TKpGL3 (100 ng), and pCMVβgal (250 ng). […] Cell extracts were subsequently analyzed for luciferase activity via luminometry (VICTOR^3 V multilabel plate reader; PerkinElmer, Waltham, MA, USA). ortho-Nitrophenyl-β-D-galactopyranoside was used to measure β-galactosidase activity, following a previously described method. […]
(§2) Furthermore, compounds 1–3 were evaluated in vitro for their agonist activity towards the human PPARγ subtype (hPPARγ) by employing the GAL4-PPAR transactivation assay. […] We evaluated the efficacy of 1–3 on PPARγ at increasing concentrations up to 100 μM. […] The compounds were also analyzed in antagonist mode by conducting a competitive binding assay, in which PPARγ activity was measured at a fixed concentration of the reference agonist rosiglitazone (1 µM) in cells treated with increasing concentrations of 1–3. […]

Data set [4] has as its system PPARγ Ser245 phosphorylation by CDK5/p35. Description: In vitro kinase assay: CDK5-mediated phosphorylation of PPARγ-LBD (Pro-Q Diamond stain). The data set is classed as biochemical. Conditions: 10 µM ligand, 30 min at 30 °C. How it is done: The assay was performed on PPARγ-LBD, in the apo-form and in the complex with ligands 1–3. For the kinase assay, stock solutions of ligands were prepared by diluting with 100% DMSO to a concentration of 500 μM. The stock solutions were further diluted with 50 mM Tris-HCl, pH 7.5, up to the final concentration of 10 μM and pre-equilibrated overnight at 4 °C with the protein.
The kinase assay was carried out for 30 min at 30 °C in 50 μL of the assay buffer containing 50 mM Tris-HCl, pH 7.5, 800 ng of PPARγ-LBD, 10 μM ligand, 1% DMSO, 2.5 mM MgCl2, 50 μM DTT, 500 μM ATP, 40 ng of CDK5/p35 (Sigma-Aldrich code no. SRP5011; Merck KGaA). The experiment was performed in triplicate.
Pro-Q™ Diamond phosphoprotein gel stain (ThermoFisher, Waltham, MA, USA) provides a convenient method for selectively staining phosphoproteins in acrylamide gels, without the need for blotting or the use of phosphoprotein-specific antibodies. After performing electrophoresis, the gel was stained with Pro-Q™ Diamond and analyzed using a Chemidoc Imaging System (Bio-Rad). A further step of gel staining with SYPRO™ Ruby total-protein gel stain (ThermoFisher) was performed. Determining the ratio of the signal intensities of Pro-Q™ Diamond dye to SYPRO™ Ruby dye for each band provides a measure of the phosphorylation level normalized to the total amount of protein. More detailed information on the protocol used in this experiment can be obtained on the ThermoFisher website.
Finally, to assess the ability of 1–3 to inhibit the CDK5-mediated phosphorylation of PPARγ in vitro, a kinase assay was set up and optimized to measure the inhibition rate, as described in the experimental section. The phosphoproteins were detected and quantified by using the Pro-Q™ Diamond phosphoprotein gel stain method.

Data set [5] addresses T3, human PPARγ subtype (hPPARγ), Gal4-PPARγ-LBD. Description: GAL4-PPAR transactivation assay, agonist mode. The data set is classed as cell-based. Conditions: HepG2, up to 100 µM; rosiglitazone maximum = 100%.
Excerpt: as §1, §2

Data set [6] relates to HepG2. Description: Cytotoxicity seen by microscopy in the transactivation assay. Conditions: HepG2, at 25 and 100 µM, visually examined, data not shown. The data set is classed as cell-based, human. How it is done:
Furthermore, compounds 1–3 were evaluated in vitro for their agonist activity towards the human PPARγ subtype (hPPARγ) by employing the GAL4-PPAR transactivation assay. The results were compared to the corresponding data for rosiglitazone, used as a reference in the test. The maximum fold induction obtained with the reference agonist was defined as 100%. We evaluated the efficacy of 1–3 on PPARγ at increasing concentrations up to 100 μM. […] The compounds were also analyzed in antagonist mode by conducting a competitive binding assay, in which PPARγ activity was measured at a fixed concentration of the reference agonist rosiglitazone (1 µM) in cells treated with increasing concentrations of 1–3. The inhibition curves, from which the IC50 values were extrapolated as mean ± SEM of three duplicate experiments, are reported in Figure 4A. […] Consequently, the IC50 values could not be estimated with a certainty above 10 µM, which was the threshold at which the cytotoxicity was null or negligible. From the inhibition curves (Figure 4A), we hypothesized the absence of antagonism: the activity remained unchanged up to 10 µM and then decreased at 25 µM and 100 µM. However, at these concentrations, the signal reduction could not be unequivocally attributed to PPARγ antagonism, due to the cytotoxic effects of the compounds at higher doses.

T2 sequence (Q00535 whole entry): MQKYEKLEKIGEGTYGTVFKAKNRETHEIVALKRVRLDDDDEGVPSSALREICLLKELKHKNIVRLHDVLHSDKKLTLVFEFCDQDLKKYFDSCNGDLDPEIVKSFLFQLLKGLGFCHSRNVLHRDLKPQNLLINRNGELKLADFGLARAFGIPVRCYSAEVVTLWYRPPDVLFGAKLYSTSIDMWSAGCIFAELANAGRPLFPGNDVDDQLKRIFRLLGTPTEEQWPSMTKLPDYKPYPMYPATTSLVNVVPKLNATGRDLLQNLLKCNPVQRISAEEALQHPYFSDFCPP
T2 sequence (Q15078 whole entry partner): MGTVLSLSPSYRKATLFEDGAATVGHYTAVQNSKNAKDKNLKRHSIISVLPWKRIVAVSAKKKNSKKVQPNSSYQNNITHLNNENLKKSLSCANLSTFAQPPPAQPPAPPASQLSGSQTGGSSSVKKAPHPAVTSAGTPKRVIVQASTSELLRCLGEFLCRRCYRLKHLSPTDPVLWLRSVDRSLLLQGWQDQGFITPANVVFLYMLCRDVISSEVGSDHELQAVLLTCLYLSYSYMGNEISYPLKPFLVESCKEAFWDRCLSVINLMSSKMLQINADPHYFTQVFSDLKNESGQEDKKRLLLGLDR

Take `O=C1OC(c2cccc(O)c2)C(c2ccc(Br)cc2)=C1O` (stereo not drawn) [Compound 1, 4-(4-Bromophenyl)-3-hydroxy-5-(3-hydroxyphenyl)furan-2(5H)-one]: the melting point was 194 to 195 °C (dec.). Besides, in data set [1], binding was characterised by a dissociation constant (Kd) of 3.75 ± 0.06 µM, the koff came to 0.0679 ± 0.0004 s⁻¹ and the kon is 18100 ± 3e+06 M⁻¹ s⁻¹. Further, the CDK5 inhibition result in data set [2] is recorded as “very low inhibition effect”. In data set [3], the IC50 came to 39.9 ± 1.2 µM. Moreover, in data set [4], the “inhibition of Ser245 phosphorylation” value is reported as approximately 40%. The “agonist activity in the PPARγ transactivation assay” value (“agonist activity” for short) in data set [5] is “PPARγ non-agonists”.
In data set [1], `O=C1OC(c2cccc(O)c2)C(C(=O)c2ccccc2)=C1O` (stereo not drawn) [Compound 2, 4-Benzoyl-3-hydroxy-5-(3-hydroxyphenyl)furan-2(5H)-one] showed a Kd of 1.93 ± 0.02 µM, an off-rate constant (koff) of 0.02241 ± 9e-05 s⁻¹ and a kon of 11700 ± 1e+06 M⁻¹ s⁻¹. In addition, the CDK5 inhibition result in data set [2] was “more significant inhibitory activity”. Besides, the IC50 in data set [3] was found to be 35.1 ± 2.8 µM. Also, in data set [4], the “inhibition of Ser245 phosphorylation” value is given as approximately 40%. Further, in data set [5], the “agonist activity” value was “PPARγ non-agonists”.
In turn, `O=C1OC(c2ccc(OCc3cccc4ccccc34)cc2)C(c2ccccc2)=C1O` (stereo not drawn) [Compound 3, 3-Hydroxy-5-(4-(naphthalen-1-ylmethoxy)phenyl)-4-phenylfuran-2(5H)-one] came in with a melting point of 204 °C. In data set [6], the cytotoxicity result is “a certain cytotoxicity”. In data set [1], binding was put at a Kd of 1.67 ± 0.02 µM, the koff is 0.0362 ± 0.0001 s⁻¹ and the kon was determined as 21700 ± 2e+06 M⁻¹ s⁻¹. Besides, in data set [2], the CDK5 inhibition entry is listed as “more significant inhibitory activity”. Besides, in data set [3], the IC50 was 16.2 ± 2.5 µM. Also, the “inhibition of Ser245 phosphorylation” value in data set [4] is recorded as approximately 40%. For the same molecule, the “agonist activity” value in data set [5] is listed as “PPARγ non-agonists”.

One may read the melting point as the temperature of the solid-liquid transition. The Kd is the free concentration of one partner at which half of the binding sites on the other are occupied at equilibrium, for simple one-to-one binding. A high value points to weaker binding. What is called koff is the rate constant with which the complex falls apart. In general, kon refers to a measure of how fast the partners come together. What is called IC50 is the midpoint of a concentration-inhibition curve.
